Data on 15 compounds can be found in PMC6211316, “Synthesis and biological evaluation of 3-arylcoumarin derivatives as potential anti-diabetic agents” (Journal of Enzyme Inhibition and Medicinal Chemistry, 2018).

The test system of one test is AGEs formation. Put plainly: In vitro inhibitory activity of AGEs formation (bovine serum albumin/glucose). The format is biochemical. As to conditions: mean ± SD (n = 3). How it is done: To prepare the AGEs reaction solution, 10 mg/mL of bovine serum albumin in 50 mM PBS (pH 7.4) was added to 0.2 M glucose, and 0.02% sodium azide was added to prevent bacterial growth. The reaction mixture (3.0 ml) was then mixed with various concentrations (0.5–1000 μg/mL) of the target compounds (1.0 ml) dissolved in DMSO. After incubating at 37 °C for 14 d, the fluorescence intensity of AGE was determined by a fluorospectrophotometer (PE, USA) with excitation and emission wavelengths at 350 nm and 420 nm, respectively. All experiments were run in triplicate. Aminoguanidine hydrochloride was used as a reference compound. The inhibition rate of AGEs formation and the IC50 value of each sample were calculated according to the formula. Inhibition rate %={[(AC−AB)−(AS−ASB)]/(AC−AB)}×100% where AC is the absorbance of control group(1.0 ml glucose +1.0 ml bovine serum albumin +1.0 ml sodium azide +1.0 ml DMSO); AB is the absorbance of blank group(1.0 ml PBS +1.0 ml bovine serum albumin +1.0 ml sodium azide +1.0 ml DMSO); AS is the absorbance of sample group (1.0 ml glucose +1.0 ml bovine serum albumin +1.0 ml sodium azide +1.0 ml target compound solution or Aminoguanidine hydrochloride solution); ASB is the absorbance of sample blank group (1.0 ml PBS +1.0 ml bovine serum albumin +1.0 ml sodium azide +1.0 ml target compound solution or Aminoguanidine hydrochloride solution).

The next test addresses T1, α-Glucosidase (Saccharomyces cerevisiae, UniProt P53341).
T1 construct: purchased Sigma Aldrich G0660-750UN
Put plainly: biochemical. It counts as biochemical. How it is done: α-Glucosidase (G0660-750UN, Sigma Aldrich) and 4-Nitrophenyl α-D-glucopyranoside (PNPG, Macklin) were dissolved in phosphate buffer (pH 6.8, 100 mM), and the test compounds were dissolved in DMSO solution. The experiment was divided into blank group, control group, sample blank group, and sample group. The reagents were loaded in 96-well plates at the dose of the table (Table 8). The solution was bathed in 37 °C water for 10 min, and then enzyme solution was added. After reaction at 37 °C for 20 min, 70 μL Na2CO3 solution ([…]) was added to stop the reaction. All experiments were run in triplicate. […] Since PNPG can produce glucose and p-Nitrophenol (PNP) under the action of α-glucosidase, PNP has the greatest absorption at 405 nm. The absorbance was determined by the microplate reader, and the inhibition rate of α-glucosidase and the IC50 value of each sample were calculated according to the formula. Inhibition rate %={[(AC−AB)−(AS−ASB)]/(AC−AB)}×100% where AC is the absorbance of control group; AB is the absorbance of blank group; AS is the absorbance of sample group; ASB is the absorbance of sample blank group.

The nature of test [1]: hydroxyl radical scavenging. As to conditions: mean ± SD (n = 3), read-out: OH IC50 Value. How it is done: The ability of the target compounds and vitamin C to scavenge the hydroxyl radical was evaluated with method described by Ismaili et al.[29] with slight modifications. In test tube, 1.0 ml H2O2 solution (0.03%), 1.0 ml FeSO4 solution (2 mmol.L^−1), 1.0 ml salicylic acid solution (10 mmol.L^−1) and 1.0 ml of 3-arylcoumarins and standard water solution with different concentration (0.4–2.0 mg/mL) were mixed. Finally, 1.0 ml H2O2 solution (0.03%) was added to this mixture to start the reaction. Solutions were kept at 37 °C. After 30 min, the absorbance was measured at 510 nm against the reagent blank, where the distilled water was substituted for the H2O2 solution. The percentage of OH scavenging by target compounds and vitamin C was calculated the following equation: OH scavenging effect (%)=[A0−(A1−A2)]/A0×100% where A0 is the absorbance of 1.0 ml distilled water +1.0 ml H2O2 + 1.0 ml FeSO4 + 1.0 ml salicylic acid +1.0 ml H2O2; A1 is the absorbance of 1.0 ml 3-arylcoumarins or standard +1.0 ml H2O2 + 1.0 ml FeSO4 + 1.0 ml salicylic acid +1.0 ml H2O2; A2 is the absorbance of 1.0 ml 3-arylcoumarins or standard +1.0 ml H2O2 + 1.0 ml FeSO4 + 1.0 ml absolute absolute ethanol +1.0 ml H2O2.

A short description of test [2]: DPPH free radical scavenging. As to conditions: mean ± SD (n = 3). How it is done: The effect of target compounds and vitamin C to scavenge the DPPH free radical was evaluated with the method described by Villano et al.[43] with slight modifications.
Two millilitres of different concentrations of the sample solution was added to 2.0 ml of DPPH solution (0.04 mg/mL), shaken and allowed to react at room temperature for 30 min. The absorbance value was measured at 517 nm with an ultraviolet-visible spectrophotometer. The blank reference cuvette contained absolute ethanol. All measurements were performed in triplicate. IC50 values were calculated. The percentage of DPPH radical scavenging rate of the target compound is calculated as follows: DPPH free radical scavenging effect (%)=[A0−(A1−A2)]/A0×100% where A0 is the absorbance of 2.0 ml DPPH solution +2.0 ml absolute ethanol; A1 is the absorbance of 2.0 ml DPPH solution +2.0 ml 3-arylcoumarins solution or standard; A2 is the absorbance of 2.0 ml 3-arylcoumarins solution or standard +2.0 ml absolute ethanol.

For the next test, the system named is normal mice. Put plainly: Acute hypoglycemic assay in normal mice. It counts as in vivo. As to conditions: 10 mg/kg of bw per os. How it is done: (§1) STZ-induced diabetic mice and normal mice were placed in single cages with wire-net floors and deprived of food for 12 h before experimentation but allowed free access to tap water throughout. The compounds (at the doses of 10, 30, and 100 mg/kg of bw) were suspended in 0.05% Tween-80 in saline solution. Glibenclamide (10 mg/kg of bw) was suspended in the same vehicle. The target compounds were freshly prepared immediately before experimentation and administered by the intragastrical route at the doses of 10 ml/kg of bw. Control mice received only the vehicle (0.05% Tween-80 in saline solution) by the same route. Blood glucose levels were measured at 0, 1.5, 3, 5, 7, and 9 h after drugs administration.

A further test concerns STZ-diabetic mice. The experiment in a line: Acute hypoglycemic assay in STZ-diabetic mice. It counts as in vivo. As to conditions: for Blood glucose concentration / % Variation of glycemia: STZ-diabetics mice, 10 mg/kg of bw per os. How it is done: Type II diabetes mellitus was induced in mice by a single intraperitoneal injection of freshly prepared STZ (Sigma Aldrich) dissolved in 0.1M citrate buffer, pH 4.5, in a volume of 110 mg/kg of bw. After 7 days of STZ administration, blood glucose levels of each mouse were determined. Mice with blood glucose levels higher than 11 mM were considered diabetic and were included in the study.
as §1

The mark [3] stands for this setting: mean ± SD (n = 3), read-out: α-Glucosidase inhibitory activity IC50 Value.

Like-named read-outs stand apart in the source and are kept apart here.

T1 sequence (P53341 whole entry): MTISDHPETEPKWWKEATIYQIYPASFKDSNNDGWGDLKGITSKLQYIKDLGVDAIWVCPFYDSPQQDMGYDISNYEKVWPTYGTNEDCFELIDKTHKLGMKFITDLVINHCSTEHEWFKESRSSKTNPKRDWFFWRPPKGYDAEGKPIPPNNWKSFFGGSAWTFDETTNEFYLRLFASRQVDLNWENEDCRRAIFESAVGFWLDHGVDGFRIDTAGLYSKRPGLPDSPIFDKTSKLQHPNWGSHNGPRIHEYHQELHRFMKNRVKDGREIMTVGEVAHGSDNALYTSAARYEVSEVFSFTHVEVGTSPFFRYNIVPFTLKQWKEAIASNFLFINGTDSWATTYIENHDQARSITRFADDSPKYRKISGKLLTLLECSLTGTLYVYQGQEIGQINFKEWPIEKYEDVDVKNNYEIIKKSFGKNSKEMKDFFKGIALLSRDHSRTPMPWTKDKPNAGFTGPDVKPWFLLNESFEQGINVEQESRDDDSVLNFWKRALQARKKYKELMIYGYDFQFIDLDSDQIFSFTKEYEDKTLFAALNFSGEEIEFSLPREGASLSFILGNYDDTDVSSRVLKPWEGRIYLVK

Regarding `O=c1oc2ccccc2cc1-c1ccc(O)cc1` [Compound 6, 3-(4-Hydroxyphenyl)-coumarin], the 50% inhibitory concentration (IC50) with AGEs formation was over 1000 µM; on α-Glucosidase (setting [3]) it was 60.88 ± 0.55 µM; in test [1], over 1 mM; in test [2], over 1000 µM.
As for `Cc1ccc(-c2cc3ccc(O)cc3oc2=O)cc1` [Compound 9, 7-Hydroxy-3-(4-methylphenyl)-coumarin], the IC50 was over 1000 µM with AGEs formation, 118 ± 41.5 µM on α-Glucosidase (setting [3]), over 1 mM in test [1] and 60.2 ± 1.27 µM in test [2].
Turning to `O=c1oc2cc(O)ccc2cc1-c1ccc(O)cc1` [Compound 12, 7-Hydroxy-3-(4-hydroxyphenyl)-coumarin], the values for the IC50 (on α-Glucosidase (setting [3]); in test [1]; in test [2]) were 19.9 ± 3.39 µM, over 1 mM and 756 ± 8.31 µM, respectively.
For `O=c1oc2c(O)cccc2cc1-c1ccc(O)cc1` [Compound 14, 8-Hydroxy-3-(4-hydroxyphenyl)-coumarin], the IC50 in the test with AGEs formation was 45.2 ± 5.28 µM; on α-Glucosidase, 213 ± 40.3 µM; in test [1], over 1 mM; in test [2], 167 ± 2.01 µM.
Take `O=c1oc2cc(O)ccc2cc1-c1ccc(F)cc1` [Compound 18, 7-Hydroxy-3-(4-fluorophenyl)-coumarin]: the IC50 in the test on AGEs formation is 20.6 ± 0.39 µM; at α-Glucosidase (setting [3]) it was 86.9 ± 1.17 µM; in test [1], over 1 mM; in test [2], over 1000 µM.
For the compound `COc1ccc(-c2cc3cccc(O)c3oc2=O)cc1` [Compound 22, 8-Hydroxy-3-(4-methoxyphenyl)-coumarin], the IC50 in the test on AGEs formation was 23.1 ± 0.82 µM; against α-Glucosidase it was over 1000 µM; in test [1], over 1 mM; in test [2] it was 15.63 ± 0.11 µM.
Regarding `COc1ccc(-c2cc3ccc(O)cc3oc2=O)cc1` [Compound 24, 7-Hydroxy-3-(4-methoxyphenyl)-coumarin], the IC50 in the test with AGEs formation is over 1000 µM; on α-Glucosidase (setting [3]), 27.42 ± 0.11 µM; in test [1], over 1 mM; in test [2] it was 53.9 ± 1.83 µM.
`O=c1oc2c(O)c(O)ccc2cc1-c1ccc(O)c(O)c1` [Compound 36, 7,8-Dihydroxy-3-(3,4-dihydroxyphenyl)-coumarin]: the IC50 in the test on AGEs formation came out at 14.2 ± 1.33 µM; at α-Glucosidase (setting [3]), 247 ± 36.2 µM; in test [1], 0.244 ± 0.0118 mM; in test [2] it was 1.33 ± 0.03 µM.
`COc1ccc(-c2cc3ccc(O)cc3oc2=O)cc1OC` [Compound 37, 7-Hydroxy-3-(3,4-dimethoxyphenyl)-coumarin]: the figures for the IC50 (on α-Glucosidase (setting [3]); in test [1]; in test [2]) were over 1000 µM, over 1 mM and 173 ± 42.6 µM, respectively.
For `O=c1oc2ccccc2cc1-c1ccc(Br)cc1` [Compound 40, 3-(4-brominephenyl)-coumarin], the IC50 in the test on AGEs formation was 13 ± 0.4 µM; at α-Glucosidase (setting [3]) it was over 1000 µM; in test [1] it was over 1 mM; in test [2], over 1000 µM.
`O=c1oc2cc(O)ccc2cc1-c1ccc(Br)cc1` [Compound 44, 7-Hydroxy-3-(4-brominephenyl)-coumarin]: the IC50 is 7.51 ± 0.38 µM in the test on AGEs formation, over 1000 µM at α-Glucosidase (setting [3]), over 1 mM in test [1] and over 1000 µM in test [2].
As to `O=c1oc2c(O)cccc2cc1-c1ccc(Br)cc1` [Compound 45, 8-Hydroxy-3-(4-brominephenyl)-coumarin], the IC50 in the test on AGEs formation is over 1000 µM; at α-Glucosidase (setting [3]) it was over 1000 µM; in test [1], 0.596 ± 0.0288 mM; in test [2] it was 488 ± 95 µM.
In the case of `O=c1oc2cc(O)cc(O)c2cc1-c1ccc(Br)cc1` [Compound 46, 5,7-Dihydroxy-3-(4-brominephenyl)-coumarin], the IC50 in the test with AGEs formation is 47.75 ± 0.15 µM; on α-Glucosidase (setting [3]), over 1000 µM; in test [1], over 1 mM; in test [2] it was over 1000 µM.
Turning to `O=c1oc2c(O)c(O)ccc2cc1-c1ccc(Br)cc1` [Compound 47, 7,8-Dihydroxy-3-(4-brominephenyl)-coumarin], the IC50 with AGEs formation came out at 299 ± 40.1 µM; at α-Glucosidase (setting [3]), 35.7 ± 0.48 µM; in test [1] it was 0.688 ± 0.0497 mM; in test [2], 2.37 ± 0.06 µM.
Turning to `COc1ccc(Cl)cc1C(=O)NCCc1ccc(S(=O)(=O)NC(=O)NC2CCCCC2)cc1` [Glibenclamide, reference compound], the Blood glucose concentration with normal mice (0h) was 9.8 ± 1.5 mM; with normal mice (1.5h) it was 6.4 ± 1.4 mM; in the test on normal mice (3h), 5.8 ± 0.8 mM; in the test with normal mice (5h), 5.0 ± 1.4 mM; with normal mice (7h), 4.3 ± 0.6 mM; in the test with normal mice (9h), 4.1 ± 0.7 mM. For the same compound, the Blood glucose concentration in the test with STZ-diabetic mice (0h) turned out to be 16.9 ± 4.3 mM; in the test on STZ-diabetic mice (1.5h), 7.2 ± 4.0 mM; with STZ-diabetic mice (3h), 6.9 ± 1.6 mM; with STZ-diabetic mice (5h) it was 6.7 ± 2.5 mM; in the test with STZ-diabetic mice (7h) it was 6.5 ± 2.2 mM; with STZ-diabetic mice (9h), 4.9 ± 2.5 mM. Further, the “% Variation of glycemia” value with normal mice (1.5h) is “(−34.58) %”; in the test with normal mice (3h) it was “(−41.36) %”; with normal mice (5h), “(−49.15) %”; in the test with normal mice (7h), “(−56.61) %”; in the test with normal mice (9h), “(−58.31) %”; in the test with STZ-diabetic mice (1.5h), “(−55.28) %”. The “% Variation of glycemia” value in the test with STZ-diabetic mice (3h) was “(−57.14) %”; in the test on STZ-diabetic mice (5h), “(−55.90) %”; in the test with STZ-diabetic mice (7h) it was “(−59.63) %”; in the test on STZ-diabetic mice (9h) it was “(−70.81) %”. Also, the “time of maximum hypoglycemic effect” value with STZ-diabetic mice (STZ-induced diabetic mice, 10 mg/kg of bw) was 9 h.
